Reference: US20140227289A1, “COMPOUNDS AND METHODS FOR TREATING INSULIN RESISTANCE SYNDROME” (priority 2011, published 2014)
Values belong to the molecule of their own block, whether it stands above or below them.

How the values were obtained:
human AGS cells = assay: Quantitative RT-PCR of FOXO target mRNAs in human AGS cells under ER stress; assay type: cell-based
Description: (§1) The expression of certain mRNAs was measured by quantitative reverse transcription polymerase chain reaction (RT-PCR). In this example, the mRNA was extracted and purified using RNeasy Mini Kit (Qiagen, Netherlands) with DNase to eliminate genomic DNA contamination. Reverse transcription to synthesize the first strand utilized oligo-dT primers. The mRNAs measured are known FOXO targets: […] (CHOP), Bim (anti- or pro-apoptotic regulators), Growth Arrest and DNA Damage gene (GADD45) and PERK. Bip2, which is not a FOXO target, was also measured as a control. Results were normalized to Kinesin mRNA.
Dimethyl sulfoxide (DMSO)-treated human AGS cells were used as a control, denoted as “ctrl”. The human AGS cells were grown in Roswell Park Memorial Institute (RPMI) media supplemented with 10% FBS, and treated with 10 μg/ml tunicamycin dissolved in DMSO at 1 mg/ml for 4 hours to induce ER stress. The tunicamycin treated cells are denoted as “TM”.
Quantitative RT-PCR was performed to show the relative level of the indicated human mRNA targets. The results are shown in FIG. 5A where normalized levels of mRNA transcripts were measured for the “TM” cells compared to the “ctrl” cells. […] It can be concluded that ER stress induces the expression of Bip2, CHOP, Bim and GADD45.
(§2) The tunicamycin treated (“TM”) cells were further treated with siRNA treatment to deplete PERK from human AGS cells. The siRNA sequence used was 5′-[…]-3′ (SEQ ID NO: 1). The siRNA was transfected into cells using HiPerFect reagent (Qiagen, Netherlands) for 3 days before tunicamycin treatment. The PERK-depleted cells are denoted as “PERK RNAi+TM”.
(§3) Quantitative RT-PCR was performed to show the relative level of the indicated human mRNA targets. The results are shown in FIG. 5B where normalized levels of the target mRNA transcripts were measured for the “TM” cells compared with the “PERK RNAi+TM” cells. The levels of these target mRNAs in PERK-depleted (“PERK RNAi+TM”) cells were normalized to the levels of tunicamycin-treated (“TM”) control cells.

HEPG2 liver cells = assay: Foxo1 target gene expression in palmitate treated (insulin resistant) HEPG2 liver cells; assay type: cell-based, human; conditions: palmitate treated cells further treated with PERK kinase inhibitor
Description: HEPG2 liver cells were treated with 0.75 mM of palmitate, a saturated fatty acid, for 17 hours to induce insulin resistance, and the effects of PERK inhibition were assessed by monitoring Foxo1 target gene expression. The Foxo1 target genes are pyruvate dehydrogenase lipoamide kinase isozyme 4 gene (PDK4; encoding a protein that inhibits the pyruvate dehydrogenase complex) and phosphoenolpyruvate carboxykinase 1 (PCK1; encoding […]).
The results are shown in FIG. 12A, where the data was normalized to Kinesin mRNA levels and to the level of the rp132 control mRNAs.
The palmitate treated cells were further treated by inhibiting PERK kinase inhibitor 5-Bromo-N4-2-pyridinyl-N2-[3-(1,2,3,6-tetrahydro-4-pyridinyl)-1H-indol-5-yl]-2,4-pyrimidinediamine.
The results are shown in FIG. 12B, where the data was normalized to Kinesin mRNA levels and to the level of the rp132 control mRNAs. It can be seen that PERK inhibition decreased the expression of the Foxo1 targets, PDK4 and PCK1.

human Foxo1 = assay: Foxo1 luciferase reporter assay in human H1299 cells; assay type: cell-based; conditions: 1 μM
Description: Human H1299 cells were transfected to express human Foxo1 (“FOXO1”) and co-transfected to express PERK (“FOXO1+PERK”). The transfected H1299 cells were treated with 1 μM PERK kinase inhibitor (“FOXO1+inhibitor” and “FOXO1+PERK+inhibitor”). The PERK kinase inhibitor has the chemical formula: 5-Bromo-N4-2-pyridinyl-N2-[3-(1,2,3,6-tetrahydro-4-pyridinyl)-1H-indol-5-yl]-2,4-pyrimidinediamine. The activity of the Foxo1 luciferase reporter gene was then measured in terms of normalized IRS-luciferase levels.

HEPG2 hepatocyte cells = assay: Expression of FOXO targets in serum starved, PI3K inhibited HEPG2 hepatocyte cells; assay type: cell-based, human; conditions: serum starved+LY+PERK inhibition vs serum starved+LY
Description: To test the effects of PERK inhibition on endogenous Foxo1 targets, the cells were serum starved to remove growth factors and treated with the PI3K inhibitor LY294002 (50 μM) to further reduce AKT activity (“serum starved+LY”) for 4 hours. This treatment can be viewed as a model for extreme insulin resistance, in that it removes the capacity of the cell to respond insulin signaling by activating AKT. Control cells were grown in DMEM supplemented with 10% FBS (“control with serum”). The endogenous human FOXO targets are BIM gene (a pro-apoptotic member of the BCL-2 protein family), Cyclin G2 gene (encoding a cyclin that blocks cell cycle entry), insulin receptor substrate 2 gene (IRS-2; encoding a cytoplasmic signaling molecule that mediates effects of insulin), p27KIP1 gene (encoding a cell cycle regulatory protein), pyruvate dehydrogenase lipoamide kinase isozyme 4 gene (PDK4; encoding a protein that inhibits the pyruvate dehydrogenase complex), phosphoenolpyruvate carboxykinase 2 (PCK2; encoding a mitochondrial enzyme), p21 gene (encoding a cyclin-dependent kinase inhibitor) and insulin receptor gene (INSR). The rp132 gene (a ribosomal protein gene) and the mActin gene (encoding a muscle-specific type actin) are not FOXO targets and were used as controls. […] Example 11A was repeated with HEPG2 hepatocyte cells instead.

MCF-7 cells = assay: Expression of endogenous Foxo1 targets in serum starved, PI3K inhibited MCF-7 cells; assay type: cell-based, human; conditions: serum starved+LY+PERK inhibition vs serum starved+LY
Description: To test the effects of PERK inhibition on endogenous Foxo1 targets, the cells were serum starved to remove growth factors and treated with the PI3K inhibitor LY294002 (50 μM) to further reduce AKT activity (“serum starved+LY”) for 4 hours. This treatment can be viewed as a model for extreme insulin resistance, in that it removes the capacity of the cell to respond insulin signaling by activating AKT. Control cells were grown in DMEM supplemented with 10% FBS (“control with serum”). The endogenous human FOXO targets are BIM gene (a pro-apoptotic member of the BCL-2 protein family), Cyclin G2 gene (encoding a cyclin that blocks cell cycle entry), insulin receptor substrate 2 gene (IRS-2; encoding a cytoplasmic signaling molecule that mediates effects of insulin), p27KIP1 gene (encoding a cell cycle regulatory protein), pyruvate dehydrogenase lipoamide kinase isozyme 4 gene (PDK4; encoding a protein that inhibits the pyruvate dehydrogenase complex), phosphoenolpyruvate carboxykinase 2 (PCK2; encoding a mitochondrial enzyme), p21 gene (encoding a cyclin-dependent kinase inhibitor) and insulin receptor gene (INSR). The rp132 gene (a ribosomal protein gene) and the mActin gene (encoding a muscle-specific type actin) are not FOXO targets and were used as controls. […]

PERK = assay: siRNA depletion of PERK in human AGS cells, quantitative RT-PCR; assay type: cell-based; conditions: siRNA transfected 3 days before tunicamycin treatment
Description: as §1, §2, §3

FOXO-GFP = FOXO-GFP subcellular localization assay in Drosophila S2 cells; assay type: cell-based; conditions: 10 μg/ml of insulin for 30 min, serum free medium
Description: A FOXO-green fluorescent (GFP) fusion protein was expressed in Drosophila S2 cells by transient transfection. The Drosophila cells were grown in serum free medium and deprived of insulin. The transfected cells were treated with 10 μg/ml of insulin for 30 min and the subcellular localization of FOXO-GFP was scored by obtaining images of the FOXO-GFP expressing cells. The insulin treated cells were named sample (b). A control sample (a) was obtained by having no insulin treatment to the transfected cells. In sample (c), ER stress was induced by RNA interference (RNAi) to disrupt endoplasmic-reticulum-associated-protein degradation (ERAD) machinery. The disruption of ERAD machinery was done by treatment of dsRNA to deplete HMG-CoA reductase degradation protein 3 (Hrd3), thereby inducing ER stress. Thereafter, the cells were treated with insulin 4 days after the dsRNA treatment. In sample (d), ER stress was induced by dsRNA treatment to deplete Hrd3. PERK protein was also depleted using dsRNA treatment. Thereafter, the cells were treated with insulin 4 days after the dsRNA treatment.
The results are shown in FIG. 2, where N means predominantly nuclear, C means predominantly cytoplasmic and CN means both nuclear and cytoplasmic. […]

human Foxo1 (human) = human Foxo1 (human) (UniProt Q12778); assay: cell-based or functional assay
UniProt Q12778, sequence (Q12778 whole entry): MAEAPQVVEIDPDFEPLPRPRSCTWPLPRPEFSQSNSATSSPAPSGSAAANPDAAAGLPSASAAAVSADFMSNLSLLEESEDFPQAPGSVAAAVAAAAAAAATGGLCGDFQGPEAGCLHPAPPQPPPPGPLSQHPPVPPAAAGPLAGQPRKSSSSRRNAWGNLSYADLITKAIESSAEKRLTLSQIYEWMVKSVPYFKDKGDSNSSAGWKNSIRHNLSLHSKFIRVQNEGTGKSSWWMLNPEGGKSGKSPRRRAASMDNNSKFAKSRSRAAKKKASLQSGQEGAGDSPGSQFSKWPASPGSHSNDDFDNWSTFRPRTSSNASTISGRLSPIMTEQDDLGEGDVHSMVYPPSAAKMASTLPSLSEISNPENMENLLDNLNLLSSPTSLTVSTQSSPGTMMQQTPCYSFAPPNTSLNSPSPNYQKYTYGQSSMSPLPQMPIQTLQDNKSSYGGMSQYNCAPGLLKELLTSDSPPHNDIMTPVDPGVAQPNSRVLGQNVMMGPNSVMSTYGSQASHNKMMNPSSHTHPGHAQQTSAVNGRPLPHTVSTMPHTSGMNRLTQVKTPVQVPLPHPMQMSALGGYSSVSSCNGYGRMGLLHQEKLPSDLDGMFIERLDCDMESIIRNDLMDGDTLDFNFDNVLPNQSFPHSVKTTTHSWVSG

[1] = PERK RNAi+TM cells compared with TM cells

Molecule: tunicamycin [TM, reference compound]
levels of Bip2, CHOP, Bim and GADD45 mRNA transcripts compared to ctrl cells (human AGS cells; 10 μg/ml tunicamycin for 4 hours, normalized to Kinesin mRNA): significantly higher

Molecule: Brc1cnc(Nc2ccc3[nH]cc(C4=CCNCC4)c3c2)nc1Nc1ccccn1 [PERK kinase inhibitor, 5-Bromo-N4-2-pyridinyl-N2-[3-(1,2,3,6-tetrahydro-4-pyridinyl)-1H-indol-5-yl]-2,4-pyrimidinediamine]
expression of the Foxo1 targets PDK4 and PCK1 (HEPG2 liver cells): decreased
levels of rp123 and mActin (not Foxo1 targets) (HEPG2 liver cells): not substantially altered
level of Foxo1 activity with co-expressed PERK (normalized IRS-luciferase levels) (human Foxo1; FOXO1+PERK vs FOXO1+PERK+inhibitor): reduced the level of Foxo1 activity
activity of Foxo1 alone (normalized IRS-luciferase levels) (human Foxo1; FOXO1 vs FOXO1+inhibitor): did not affect
expression of rp132 and mActin (not FOXO target genes) (HEPG2 hepatocyte cells): did not reduce
target genes expression (p27, PDK, Cyclin G, PCK2, p21, INSR) (HEPG2 hepatocyte cells): reduced the target genes expression
target genes expression (BIM, Cyclin G2, IRS-2, p27KIP1, PDK4) (MCF-7 cells): reducing the target genes expression

Molecule: 5′-CAAACUGUAUAACGGUUUATT-3′ [PERK RNAi]
decrease of PERK levels compared to TM cells (PERK): more than 80%
degree of induction of Foxo1 targets CHOP, Bim and GADD45 (human AGS cells; [1]): reducing the degree of induction
levels of Bip2 transcripts (not a FOXO target) (human AGS cells; [1]): comparable

Molecule: insulin
location of FOXO-GFP both nuclear and cytoplasmic (FOXO-GFP): about 30 % of cells
location of FOXO-GFP cytoplasmic (FOXO-GFP): about 70 % of cells

normalized luciferase levels of the human Foxo1 luciferase reporter (human Foxo1 (human)): 2 fold
Molecule: human protein kinase RNA-like endoplasmic reticulum kinase (PERK) protein (from UniProt Q9NZJ5 30-1116) (enzyme)
